The nature of data set [1]: Chlorine dioxide retention in liquid treatment solution, curtain application method. The note with it: for Average ClO2 loss in ppm (±STDEV): location A minus location D; for Average ClO2 concentration in ppm (±STDEV): curtain, ambient 65-70 °F. It counts as physicochemical. The text has this: (§1) In this example, two methods for applying a liquid chlorine dioxide treatment solution were compared with a chlorine dioxide treatment solution having the same volume and initial chlorine dioxide concentration, and using a system with the same delivery rate. One method was a curtain delivery method and the other method was a low-pressure spray method.
(§2) For both the methods a 330-gallon tote was used as the source fluid reservoir. The tote was filled with about 75 gallons of fresh water and also contained submersible sump-pump that provided the fluid flow to the system. A 6.6 gallon per minute (GPM) rotameter was in line between the pump and the chlorine dioxide delivery system that delivered a concentrated solution of chlorine dioxide (˜1700 ppm) so as to make a liquid chlorine dioxide treatment solution containing an initial concentration (approximately 5 ppm) of chlorine dioxide. The delivery system sat over an aluminum sheet on a slight gradient, to provide a homogenous flow pathway of the treatment solution. The aluminum sheet allowed the treatment fluid to cascade back into the tote for recirculation. During experimentation, the rotameter was set to allow for approximately 4 GPM ([…]) of constant flow, achieved by slight pinching of a ball valve in line and downstream of the rotameter. The treatment solution was circulated through the system for a few minutes and if needed, additional concentrated solution was added to achieve the initial concentration (approximately 5 ppm chlorine dioxide) in the treatment solution before experimental runs commenced.
For the curtain application, a rain gutter was modified to serve as a trough for the fluid to fill into. The front wall of the trough was modified; it was slightly shorter and was rounded to achieve laminar or predominantly laminar flow of the fluid over the wall of the trough and down over the target belt (belt to be used for moving eggs or other products to be treated with the treatment solution). The trough also contained pieces of plastics filter media (a type of baffle) that converted the turbulent flow of the trough being filled to more homogenous, laminar flow allowing a sheer curtain or waterfall effect to be achieved consistently across the entire length of the trough, such that the curtain fell onto the target belt. […] The curtain was about 11″ in height and approximately 2-2.5 feet wide.
(§3) Each application method was tested in multiple runs in which the liquid chlorine dioxide treatment solution was maintained at a particular target temperature (approximately 120° F. (this is the high temperature curtain or spray as referred to in Table 3) or a temperature of 60-75° F. (this is the low temperature curtain or spray as referred to in Table 3)).
(§4) For the curtain application method, the fluid was sampled at four locations: (A) from the hose that delivered treatment solution into the trough, (B) where the fluid entered the trough (C) within the trough near the exit where fluid flowed out of the trough to form the curtain, (D) where the fluid of the curtain fell onto the belt. For the spray application, the fluid was sampled at three locations: (A) from the hose that delivered treatment solution into the sprayer nozzle, (B) from the fluid as it exited the sprayer nozzle, (C) where the fluid of the spray fell onto the belt.
(§5) Chlorine dioxide concentrations were determined using the Palintest ChlordioX Plus device in accordance with the manufacturer's instructions.

Data set [2] is described as follows: Chlorine dioxide retention in liquid treatment solution, low-pressure spray application method. It counts as physicochemical. The note with it: for Average ClO2 loss in ppm (±STDEV): location A minus location C; for Average ClO2 concentration in ppm (±STDEV): spray, ambient 65-70 °F.
Text: as §1, §2
For the spray application, a series of nozzles were used to apply the treatment solution.
as §3, §4, §5

On to `[O][Cl+][O-]` [ClO2, chlorine dioxide], for which the “Average ClO2 loss in ppm (±STDEV)” value in data set [1] (Curtain with high temperature (approximately 120 °F)) stood at 1.95 ± 0.58 ppm; in data set [1] (Curtain with low temperature (60-75 °F)), 1.37 ± 0.27 ppm; in data set [2] (Spray with high temperature (approximately 120 °F)) it was 3.24 ± 0.67 ppm; in data set [2] (Spray with low temperature (60-75 °F)), 1.44 ± 0.38 ppm. In addition, the “Average ClO2 concentration in ppm (±STDEV)” value (“Average ClO2 concentration” for short) in data set [1] (treatment fluid 65-75 °F, location A (hose delivering treatment solution into trough)) was determined as 4.88 ± 0.87 ppm; in data set [1] (treatment fluid 65-75 °F, location B (where fluid entered the trough)), 4.91 ± 0.83 ppm; in data set [1] (treatment fluid 65-75 °F, location C (within trough near the exit)) it was 4.39 ± 0.79 ppm; in data set [1] (treatment fluid 65-75 °F, location D (where curtain fell onto the belt)), 3.51 ± 0.68 ppm; in data set [1] (treatment fluid 110-120 °F, location A (hose delivering treatment solution into trough)), 5.28 ± 0.59 ppm; in data set [1] (treatment fluid 110-120 °F, location B (where fluid entered the trough)) it was 4.70 ± 0.28 ppm. Besides, the “Average ClO2 concentration” value in data set [1] (treatment fluid 110-120 °F, location C (within trough near the exit)) came out at 4.51 ± 0.52 ppm; in data set [1] (treatment fluid 110-120 °F, location D (where curtain fell onto the belt)), 3.34 ± 0.58 ppm; in data set [2] (treatment fluid 60-70 °F, location A (hose delivering treatment solution into sprayer nozzle)), 4.86 ± 0.54 ppm; in data set [2] (treatment fluid 60-70 °F, location B (fluid as it exited the sprayer nozzle)) it was 4.34 ± 0.71 ppm; in data set [2] (treatment fluid 60-70 °F, location C (where spray fell onto the belt)), 3.43 ± 0.61 ppm; in data set [2] (treatment fluid 110-120 °F, location A (hose delivering treatment solution into sprayer nozzle)), 5.28 ± 0.58 ppm. The “Average ClO2 concentration” value in data set [2] (treatment fluid 110-120 °F, location B (fluid as it exited the sprayer nozzle)) is 3.57 ± 0.53 ppm; in data set [2] (treatment fluid 110-120 °F, location C (where spray fell onto the belt)), 2.04 ± 0.45 ppm.

(Values after patent publication US12194177B2, “Systems and methods for delivering chlorine dioxide using a liquid curtain” (Sabre IP Acquistionco, LLC, priority 2019, dated 2025).)
